According to patent US20240358693A1, “METHODS OF TREATING PAIN” (Aisa Pharma, Inc., priority 2023, published 2024):

Test system: participants with SSc-RP
Assay: Scleroderma Health Assessment Questionnaire (SHAQ): disability indices and visual analog scales
Type: in vivo, human
Description: The standard, validated, patient reported outcome measures tool for SSc patients, the Scleroderma Health Assessment Questionnaire (SHAQ), will be used to assess the participant qualify of life. Details are attached in the Appendix. The participant quality of life will be scored, and a disability index calculated for each questionnaire completed by the patient at Screening and each in-clinic visit. The absolute change in participant quality of life from baseline to the end of each dosing period will be calculated similar to frequency data as before.
The SHAQ includes a Raynaud's VAS, which will be reported at screening and each in-clinic visit. The absolute change in Raynaud-VAS, assessed by the participants response to the SHAQ question ‘In the past 7 days, how much have your Raynaud's interfered with your daily activities?’ at baseline and the end of each dosing period will be calculated similar to frequency data as before.
The SHAQ is used to calculate a Disability Index to assess the participant qualify of life. The eight categories assessed by the Disability Index are 1) dressing and grooming, 2) arising, 3) eating, 4) walking, 5) hygiene, 6) reach, 7) grip, and 8) common daily activities. For each of these categories, patients report the amount of difficulty they have in performing two or three specific activities.
There are four possible responses for the Disability Index questions: • Without any difficulty=0 • With some difficulty=1 • With much difficulty=2 • Unable to do=3. • The highest score reported by the patient for any component question of the eight categories determines the score for that category. • If a component question is left blank or the response is too ambiguous to assign a score, then the score for that category is determined by the remaining completed question(s). • If all component questions are blank or if more than one answer is given, then follow up with the respondent is required. • If the respondent's mark is between the response columns, then move it to the closest one. If it's directly between the two, move it to the higher one.
Each of the disability items on the SHAQ has a companion aids/devices variable that is used to record what type(s) of assistance, if any, the participant uses for his/her usual activities. These variables (see below) are coded as follows: • 0=No assistance is needed. • 1=A special device is used by the patient in his/her usual activities. • 2=The patient usually needs help from another person. • 3=The patient usually needs BOTH a special device AND help from another person.
The scoring variables and scoring rules permit the computation of two disability indices, the Standard Disability Index and the Alternative Disability Index.
This question results in a new set of category scores that are computed by adjusting the score for each category, if necessary, based on the patient's use of an aid or device or assistance for that category. If either devices and/or help from another person are checked for a category, the score is set to “2”, unless the score is already “3” (i.e., scores of “0” or “1” are increased to “2”). For example, if the highest score for the dressing category is “1”, and the patient says they use a device for dressing, the computed category score would be “2”. The sum of the computed categories scores is then calculated and divided by the number of categories answered. This gives a score in the 0 to 3 range.
The aid and device variables are not used to calculate the alternative disability index; it is calculated by adding the scores for each of the categories and dividing by the number of categories answered. This gives a score in the 0 to 3 range.
The standard, validated, patient reported outcome measures tool for SSc patients, the SHAQ, was collected at the time points specified in the study schedules (FIG. 2 and FIGS. 4A and 4B) to assess the participant's quality of life. The SHAQ included a Raynaud's VAS that will also be reported separately.

[1] = Cilnidipine 10 mg, Day 12, PP Population Part A, SSc patients
[2] = Cilnidipine 10 mg, Day 12, PP Population, Part A
[3] = Cilnidipine 10 mg, PP Population Part A, SSc patients
[4] = Cilnidipine 20 mg (N = 3), Modified ITT, Part A
[5] = Cilnidipine 20 mg (N = 3), patients with diagnosis of SSc, sensitivity analysis, Modified ITT, Part A

COCCOC(=O)C1=C(C)NC(C)=C(C(=O)OC/C=C/c2ccccc2)C1c1cccc([N+](=O)[O-])c1 (stereo not shown) [Cilnidipine, cilnidipine]
SHAQ Visual Analogue Scale - Finger Ulcers, Change from Baseline, Mean [1]: −0.425 | SHAQ Visual Analogue Scale - Finger Ulcers, Change from Baseline, Median [1]: −0.350 | SHAQ Visual Analogue Scale - Finger Ulcers, Percent Change from Baseline, Mean [1]: −69.44% | SHAQ Visual Analogue Scale - Finger Ulcers, Percent Change from Baseline, Median [1]: −69.44% | SHAQ Visual Analogue Scale - Intestinal Problems, Change from Baseline, Mean [1]: −1.875 | SHAQ Visual Analogue Scale - Intestinal Problems, Change from Baseline, Median [1]: −1.550 | SHAQ Visual Analogue Scale - Intestinal Problems, Percent Change from Baseline, Mean [1]: −77.37% | SHAQ Visual Analogue Scale - Intestinal Problems, Percent Change from Baseline, Median [1]: −88.00% | SHAQ Visual Analogue Scale - Overall Disease Severity, Change from Baseline, Mean [1]: −0.900 | SHAQ Visual Analogue Scale - Overall Disease Severity, Change from Baseline, Median [1]: −0.950 | SHAQ Visual Analogue Scale - Overall Disease Severity, Percent Change from Baseline, Mean [1]: −56.96% | SHAQ Visual Analogue Scale - Overall Disease Severity, Percent Change from Baseline, Median [1]: −44.12% | SHAQ Visual Analogue Scale - Pain, Change from Baseline, Mean [1]: −0.100 | SHAQ Visual Analogue Scale - Pain, Change from Baseline, Median [1]: 0.000 | SHAQ Visual Analogue Scale - Pain, Percent Change from Baseline, Mean [1]: −9.88% | SHAQ Visual Analogue Scale - Pain, Percent Change from Baseline, Median [1]: 0.00% | SHAQ Visual Analogue Scale - Raynaud's, Change from Baseline, Mean [1]: 0.325 | SHAQ Visual Analogue Scale - Raynaud's, Change from Baseline, Median [1]: 0.350 | SHAQ Visual Analogue Scale - Raynaud's, Percent Change from Baseline, Mean [1]: 11.36% | SHAQ Visual Analogue Scale - Raynaud's, Percent Change from Baseline, Median [1]: −2.27% | SHAQ Alternative Disability Index: Change from Baseline, Mean [2]: 0.063 | SHAQ Alternative Disability Index: Change from Baseline, Median [2]: 0.000 | SHAQ Alternative Disability Index: In-Clinic Visit (Day 12), Mean [2]: 0.563 | SHAQ Alternative Disability Index: In-Clinic Visit (Day 12), Median [2]: 0.500 | SHAQ Alternative Disability Index: Percent Change from Baseline, Mean [2]: 15.87% | SHAQ Alternative Disability Index: Percent Change from Baseline, Median [2]: 15.87% | SHAQ Standard Disability Index: Change from Baseline, Mean [2]: 0.000 | SHAQ Standard Disability Index: Change from Baseline, Median [2]: 0.000 | SHAQ Standard Disability Index: In-Clinic Visit (Day 12), Mean [2]: 0.656 | SHAQ Standard Disability Index: In-Clinic Visit (Day 12), Median [2]: 0.563 | SHAQ Standard Disability Index: Percent Change from Baseline, Mean [2]: 0.00% | SHAQ Standard Disability Index: Percent Change from Baseline, Median [2]: 0.00% | SHAQ Visual Analogue Scale - Pain: Change from Baseline, Mean [2]: −0.100 | SHAQ Visual Analogue Scale - Pain: Change from Baseline, Median [2]: 0.000 | SHAQ Visual Analogue Scale - Pain: In-Clinic Visit (Day 12), Mean [2]: 1.875 | SHAQ Visual Analogue Scale - Pain: In-Clinic Visit (Day 12), Median [2]: 1.950 | SHAQ Visual Analogue Scale - Pain: Percent Change from Baseline, Mean [2]: −9.88% | SHAQ Visual Analogue Scale - Pain: Percent Change from Baseline, Median [2]: 0.00% | SHAQ Visual Analogue Scale - Breathing Problems, In-Clinic Visit (Day 12), Mean [3]: 1.575 | SHAQ Visual Analogue Scale - Breathing Problems, In-Clinic Visit (Day 12), Median [3]: 0.000 | SHAQ Visual Analogue Scale - Finger Ulcers, In-Clinic Visit (Day 12), Mean [3]: 0.275 | SHAQ Visual Analogue Scale - Finger Ulcers, In-Clinic Visit (Day 12), Median [3]: 0.000 | SHAQ Visual Analogue Scale - Intestinal Problems, In-Clinic Visit (Day 12), Mean [3]: 1.100 | SHAQ Visual Analogue Scale - Intestinal Problems, In-Clinic Visit (Day 12), Median [3]: 0.300 | SHAQ Visual Analogue Scale - Overall Disease Severity, In-Clinic Visit (Day 12), Mean [3]: 1.825 | SHAQ Visual Analogue Scale - Overall Disease Severity, In-Clinic Visit (Day 12), Median [3]: 1.050 | SHAQ Visual Analogue Scale - Pain, In-Clinic Visit (Day 12), Mean [3]: 1.875 | SHAQ Visual Analogue Scale - Pain, In-Clinic Visit (Day 12), Median [3]: 1.950 | SHAQ Visual Analogue Scale - Raynaud's, In-Clinic Visit (Day 12), Mean [3]: 1.925 | SHAQ Visual Analogue Scale - Raynaud's, In-Clinic Visit (Day 12), Median [3]: 1.700 | SHAQ Overall Severity: Baseline, Mean [4]: 2.667 | SHAQ Overall Severity: Baseline, Median [4]: 2.900 | SHAQ Overall Severity: Change from Baseline, Mean [4]: −1.633, | SHAQ Overall Severity: Change from Baseline, Median [4]: −1.600 | SHAQ Overall Severity: Day 12, Mean [4]: 1.033 | SHAQ Overall Severity: Day 12, Median [4]: 1.200 | SHAQ Overall Severity: Percent Change from Baseline, Mean [4]: −62.64% | SHAQ Overall Severity: Percent Change from Baseline, Median [4]: −60.00% | SHAQ Standard Disability Index: Baseline, Mean [5]: 0.250 | SHAQ Standard Disability Index: Baseline, Median [5]: 0.375 | SHAQ Standard Disability Index: Change from Baseline, Mean [5]: −0.125
